According to US20030013658A1, “Small peptides and methods for treatment of asthma and inflammation” (Hisatek, LLC, priority 1997, published 2003):
“Also recorded” adds a separate entry of the source. Where no end group is shown, it is not given here. The star is where a group is joined. For = O=C*

Tested on: OVA-sensitized/challenged mice
Experiment: OVA allergen-induced airway inflammation mouse model, 28-day protocol, HK-X i.n. before each challenge
Format: in vivo
Text: The above-described murine model reproduces key features of human asthma. Late-phase allergen-specific pulmonary disease was induced in normal BALB/c mice using ovalbumin (OVA) as allergen. One protocol includes immunization of mice with i.p. OVA on […] and 14, and intranasal (i.n.) administration of OVA on days 14, 25, 26, and 27.
In a mouse model of allergen-induced airway inflammation, the role of mast cell in airway eosinophil infiltration, mucus release, and hyper-responsiveness to methacholine was examined.
Materials were used as described above. Mice received an i.p. injection of 0.2 ml (100 ug) of OVA complexed with aluminum potassium sulfate (alum) on day 0 and 14. On days 14, 25, 26, and 27, mice were anesthetized with 0.2 ml i.p. of ketamine (0.44 mg/ml)/xylazine (6.3 mg/ml) in normal saline before receiving an intranasal (i.n.) dose of 100 ug OVA in 0.05 ml normal saline on days 25, 26, and 27. Lung tissue was obtained 24 hours after the last i.n. challenge on day 28. The control group received normal saline with alum i.p. on days 0 and 14 and normal saline without alum i.n. on days 14, 25, 26, and 27. To assess the effect of HK-X inhibition on OVA induced asthma, HK-X (10 ug/ml) was given i.n. 30 minutes before each i.n challenge on days 25, 26, and 27.
After tying off the left lung at the mainstem bronchus, the right lung was […] three times with 0.4 ml of normal saline, Bronchoalveolar lavage (BAL) fluid cells from a 0.05 ml aliquot of the pooled sample were counted using a hemocytometer and the remaining fluid centrifuged at 4° C. for 10 minutes at 200 g. After resuspension of the cell pellet in normal saline containing 10% BSA, BAL cell smears were made on glass slides. To stain eosinophils, dried slides were stained with Discombe's diluting fluid (0.05% aqueous eosin and 5% (v/v) acetone in distilled water) for 5-8 minutes, rinsed with water for 0.5 minutes and counterstained with 0.07 methylene blue for 2 minutes.
Following BAL, the trachea and left lung (upper and lower lobes) were obtained and fixed in 10% buffered formalin solution at 20° C. for1S hours. After the tissues were processed and embeded in paraffin, the tissues were cut into 5 μm sections and stained with Discombe's solution and counterstained with methylene blue as described above or stained with Hematoxylin and eosin. The eosinophil number per unit airway area (2200 μm^2) was determined by morphometry as previously described. Airway mucus was identified by a variety of staining methods, i.e., methylene blue, Hematoxylin and eosin, mucicarmine, toluidine blue, alcian blue, and alcian blue/periodic acid Schiff (PAS) reaction. Mucin was stained with mucicarmine solution; metanil yellow counterstain was employed. Mucin and sialic acid-rich non-sulfated mucosubstances were stained metachromatically with toluidine blue, pH 4.5. Acidic mucin and sulfated mucosubstances were stained with alcian blue, pH 2.5; nuclear fast red counterstain was used. Neutral and acidic mucosubstances were identified by alcian blue, pH 2.5 and PAS reaction. The degree of mucus plugging of the airways (0.5˜0.8 mm in diameter) also was assessed by morphometry. The percent occlusion of airway diameter by mucus was classified on a semiquantitative scale from 0 to +++++. The histologic and morphometric analyses protocol design were performed by individuals blinded to the protocol design.
Mucus glycoproteins in BAL fluid were assayed by slot blotting and PAS staining as described. Nitrocellulose membranes (0.2 um pore size; Schleicher & Schuell, Keene, N.H.) were wetted in distilled water and then in normal saline before placement in a Minifold II 72-well slot blot apparatus (Schleicher & Schuell). The BAL fluid samples (0.05 ml) and aliquots (0.05-0.75 ml) of a stock solution (2 ug/ml) of human respiratory mucin glycoprotein were blotted onto the nitrocellulose membranes by water suction vacuum, and mucus glycoproteins were visualized by PAS reaction. […]

Question: With “f-Met-Leu-Phe-Phe (For-MLFF) [Example 9]” as the substance, how does the “cellular infiltration during asthmatic attack” value (10 μg HK-X intranasally 30 minutes prior to challenge, FIG. 9) read?
Answer: reduces the cellular infiltration

Question: And the “eosinophil influx into lung tissue and BAL fluid” value (HK-X 10 ug/ml i.n. 30 minutes before each i.n. challenge, day 28)?
Answer: markedly reduced eosinophil influx into the lung tissue and BAL fluid

Question: What about the “airway mucus release / secretion” value (HK-X i.n. 30 minutes before each OVA challenge days 25, 26, 27, histopathology, listed as HK-X) of the same substance?
Answer: prevented airway mucus release; also recorded: blocked the airway mucus release; also recorded: prevents the airway mucus secretion; also recorded: reduces the mucus secretion in airways

Question: What about the “number of eosinophils in the BAL fluid” value (OVA-sensitized/challenged mice treated with HK-X, in ×10^5 cells) of the same substance?
Answer: 0.57+0.11 ×10^5

Question: What about the “mucus cell induction by OVA immunization and challenge” value (alcian blue histochemistry, FIG. 10) of the same substance?
Answer: prevents the mucus cell induction by OVA immunization and challenge

Question: And the “reduction of eosinophil influx into the lung interstitium” value (morphometric analysis, p<0.006 compared to OVA without HK-X, FIG. 11)?
Answer: 90%
